The structures appear in SMILES notation.

For orientation: IC50 means the concentration needed to halve the response being measured.

Sequence of Vascular endothelial growth factor receptor 2 (P35968 whole entry, the tested form may be a part): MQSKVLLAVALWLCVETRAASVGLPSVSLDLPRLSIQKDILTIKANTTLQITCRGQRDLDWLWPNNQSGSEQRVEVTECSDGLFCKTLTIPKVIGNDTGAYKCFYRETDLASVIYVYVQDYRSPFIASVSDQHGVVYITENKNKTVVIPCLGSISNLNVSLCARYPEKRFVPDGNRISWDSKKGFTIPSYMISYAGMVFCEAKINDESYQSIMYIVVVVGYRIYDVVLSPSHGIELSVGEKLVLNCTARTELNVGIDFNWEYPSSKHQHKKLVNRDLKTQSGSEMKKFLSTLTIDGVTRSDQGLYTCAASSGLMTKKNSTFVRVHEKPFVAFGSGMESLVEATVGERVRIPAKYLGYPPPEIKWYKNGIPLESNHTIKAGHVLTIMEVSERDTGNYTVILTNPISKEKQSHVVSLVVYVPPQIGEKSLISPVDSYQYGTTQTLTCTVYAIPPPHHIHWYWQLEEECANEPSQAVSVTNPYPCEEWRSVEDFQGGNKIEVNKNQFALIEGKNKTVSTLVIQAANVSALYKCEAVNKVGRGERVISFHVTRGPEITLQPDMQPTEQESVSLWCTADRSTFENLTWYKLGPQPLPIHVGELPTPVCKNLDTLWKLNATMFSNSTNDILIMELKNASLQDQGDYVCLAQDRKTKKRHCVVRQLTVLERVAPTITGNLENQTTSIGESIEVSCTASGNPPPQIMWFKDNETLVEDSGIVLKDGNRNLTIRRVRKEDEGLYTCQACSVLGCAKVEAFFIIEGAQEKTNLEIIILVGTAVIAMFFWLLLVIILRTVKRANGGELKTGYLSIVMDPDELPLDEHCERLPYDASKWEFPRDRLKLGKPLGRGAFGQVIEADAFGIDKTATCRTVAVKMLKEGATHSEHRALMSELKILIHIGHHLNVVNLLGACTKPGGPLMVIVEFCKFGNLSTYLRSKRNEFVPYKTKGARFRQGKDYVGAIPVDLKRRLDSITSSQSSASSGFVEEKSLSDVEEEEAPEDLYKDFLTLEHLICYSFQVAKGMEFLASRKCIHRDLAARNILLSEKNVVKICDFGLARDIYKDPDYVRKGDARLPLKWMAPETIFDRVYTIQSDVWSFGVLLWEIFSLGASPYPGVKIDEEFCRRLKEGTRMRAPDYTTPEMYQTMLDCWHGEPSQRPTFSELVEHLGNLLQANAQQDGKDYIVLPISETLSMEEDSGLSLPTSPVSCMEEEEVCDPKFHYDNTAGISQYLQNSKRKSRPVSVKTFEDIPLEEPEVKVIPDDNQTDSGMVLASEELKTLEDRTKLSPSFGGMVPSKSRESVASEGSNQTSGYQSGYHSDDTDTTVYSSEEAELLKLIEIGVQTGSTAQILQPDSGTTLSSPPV

This assay has as its target Vascular endothelial growth factor receptor 2 (Homo sapiens, UniProt P35968). Description: Homogeneous Time-resolved Fluorescence (HTRF) Assay. From the text: The assay was using baculovirus-expressed recombinant protein kinase purified as the intracellular domain fused by GST tag, interacting with biotinylated peptide substrate. HTRF is based on the proximity of europium cryptate (donor fluorophore)-labeled antiphosphotyrosine and streptavidin labeled with APC(allophycocyanin), which have been brought together by a binding reaction. When the two entities come into close proximity and upon excitation, energy transfer occurs and APC re-emits at 665 nm.
(In TR-FRET formats the signal depends on donor and acceptor labels being close together.)
In the case of `CN(c1ccc(NS(=O)(=O)Cc2ccccc2)cc1)c1ccnc(Nc2cccc(CS(C)(=O)=O)c2)n1` [N-{4-[(2-{[3-(methanesulfonylmethyl)phenyl]amino}pyrimidin-4-yl)(methyl)amino]phenyl}-1-phenylmethanesulfonamide], half-maximal inhibition (IC50) was put at 269 nM. For the compound `CN(c1ccc(NC(=S)Nc2ccccc2)cc1)c1ccnc(Nc2cccc(CS(C)(=O)=O)c2)n1` [3-{4-[(2-{[3-(methanesulfonylmethyl)phenyl]amino}pyrimidin-4-yl)(methyl)amino]phenyl}-1-phenylthiourea], it took 117 nM to reach half-maximal inhibition (IC50). This IC50 is about 2.3-fold lower than that of the compound before. Next, `CN(c1ccc(NC(=N)Nc2ccccc2)cc1)c1ccnc(Nc2cccc(CS(C)(=O)=O)c2)n1` [1-{4-[(2-{[3-(methanesulfonylmethyl)phenyl]amino}pyrimidin-4-yl)(methyl)amino]phenyl}benzeneguanidine]: 324 nM.

The compound `CN(c1ccc(NC(=O)Oc2ccccc2)cc1)c1ccnc(Nc2cccc(CS(C)(=O)=O)c2)n1` [phenyl N-{4-[(2-{[3-(methanesulfonylmethyl)phenyl]amino}pyrimidin-4-yl)(methyl)amino]phenyl}carbamate] yielded a half-inhibitory concentration (IC50) of 95 nM. `CN(c1ccc(NC(=O)Nc2ccccc2)cc1)c1ccnc(Nc2cccc(CS(C)(=O)=O)c2)n1` [3-{4-[(2-{[3-(methanesulfonylmethyl)phenyl]amino}pyrimidin-4-yl)(methyl)amino]phenyl}-1-phenylurea] yielded an IC50 of 18 nM. As for `CN(c1ccc(NC(=O)Nc2ccccc2)cc1)c1ccnc(Nc2cccc(S(N)(=O)=O)c2)n1` [3-{4-[methyl({2-[(3-sulfamoylphenyl)amino]pyrimidin-4-yl})amino]phenyl}-1-phenylurea], the 50% inhibitory concentration (IC50) turned out to be 5 nM. `CN(c1ccc(NC(=O)Cc2ccccc2)cc1)c1ccnc(Nc2cccc(CS(C)(=O)=O)c2)n1` [N-{4-[(2-{[3-(methanesulfonylmethyl)phenyl]amino}pyrimidin-4-yl)(methyl)amino]phenyl}-2-phenylacetamide]: the IC50 came out at 176 nM.

Values taken from BindingDB's records for doi:10.1016/j.bmcl.2005.03.034 (Glaxosmithkline, 2005).
